{
  "source": "patent US12655132B2",
  "about": "“Crystal forms of a pyridazinone TRPC inhibitor” (GFB (ABC), LLC, priority 2019, dated 2026)",
  "test": "Stability of crystalline form E at different relative humidities over 3-14 days",
  "format": "physicochemical",
  "method": "Crystalline form E was also tested for stability at different relative humidities over 3-14 days. The results are shown below in Table 3.1",
  "data": [
    {"compound": "O=c1[nH]ncc(N2CCc3c(ncnc3Oc3ccc(F)cc3C(F)(F)F)C2)c1Cl", "note": "[Crystalline Form E, 4-chloro-5-(4-(4-fluoro-2-(trifluoromethyl)phenoxy)-5,8-dihydropyrido[3,4-d]pyrimidin-7(6H)-yl)pyridazin-3(2H)-one]", "values": [
      {"measurement": "Stability of Crystalline Form E at Different Relative Humidities (RH): crystal type found", "setting": "30% RH, 3 days", "result": "Type E"},
      {"measurement": "Stability of Crystalline Form E at Different Relative Humidities (RH): crystal type found", "setting": "30% RH, 7 days", "result": "Type E"},
      {"measurement": "Stability of Crystalline Form E at Different Relative Humidities (RH): crystal type found", "setting": "30% RH, 14 days", "result": "Type E + Type F"},
      {"measurement": "Stability of Crystalline Form E at Different Relative Humidities (RH): crystal type found", "setting": "50% RH, 3 days", "result": "Type E"},
      {"measurement": "Stability of Crystalline Form E at Different Relative Humidities (RH): crystal type found", "setting": "50% RH, 7 days", "result": "Type E"},
      {"measurement": "Stability of Crystalline Form E at Different Relative Humidities (RH): crystal type found", "setting": "50% RH, 14 days", "result": "Type E"},
      {"measurement": "Stability of Crystalline Form E at Different Relative Humidities (RH): crystal type found", "setting": "60% RH, 3 days", "result": "Type E"},
      {"measurement": "Stability of Crystalline Form E at Different Relative Humidities (RH): crystal type found", "setting": "60% RH, 7 days", "result": "Type E"},
      {"measurement": "Stability of Crystalline Form E at Different Relative Humidities (RH): crystal type found", "setting": "60% RH, 14 days", "result": "Type E"},
      {"measurement": "Stability of Crystalline Form E at Different Relative Humidities (RH): crystal type found", "setting": "92.5% RH, 3 days", "result": "Type E"},
      {"measurement": "Stability of Crystalline Form E at Different Relative Humidities (RH): crystal type found", "setting": "92.5% RH, 7 days", "result": "Type E"},
      {"measurement": "Stability of Crystalline Form E at Different Relative Humidities (RH): crystal type found", "setting": "92.5% RH, 14 days", "result": "Type E"},
      {"measurement": "Stability at low relative humidity (conclusion in words)", "setting": "storage for 14 days at 30% relative humidity, appearance of Type F", "result": "unstable"}
    ]}
  ]
}
